In patent US10016383B2, “Inhibitors of metallo-β-lactamase-enzymes” (McMaster University, priority 2013, dated 2018):
pKi: −log10 of the molar value. Entries after “also recorded” stand apart in the source; their conditions may differ.

What was measured:
[1] = target: T1, NDM-1 (Klebsiella pneumoniae, UniProt C7C422); assay: Zn2+ restoration assay; assay type: biochemical; design: All β-lactamase overexpression constructs were generated without the leader peptide in a pET-28b plasmid containing a N-terminal His Tag; His tag (N, cleaved yes); SUMO (implied by the use of SUMO protease) (N, cleaved yes); made in house; host or cells: E. coli BL21(DE3); conditions: post-inactivation by AM-A
Experimental: NDM-1 (5 nM) supplemented with […] ZnSO4 was incubated with 20 μM AM-A for 15 minutes at 30° C. Nitrocefin (30 μM) and ZnSO4 from 500 nM-40 μM were added to a final volume of 100 μL and absorbance at 490 nm was monitored using a Spectramax reader (Molecular Devices) for 30 minutes at 30° C. Percent residual activity was calculated from no AM-A control. Slightly negative percent residual activity was reported as 0.

[2] = target: T1, NDM-1; assay: Inactivation kinetics; assay type: biochemical; design: All β-lactamase overexpression constructs were generated without the leader peptide in a pET-28b plasmid containing a N-terminal His Tag; His tag (N, cleaved yes); SUMO (implied by the use of SUMO protease) (N, cleaved yes); made in house; host or cells: E. coli BL21(DE3)
Experimental: (§1) NDM-1 (50 nM) was added to 20 μM nitrocefin containing AM-A in serial ½ dilutions from 8 μM. The assay was performed in 50 mM HEPES pH 7.5, 200 μL final volume. The assay was read in 96-well microplate format at 490 nm using a Spectramax reader (Molecular Devices) for 10 minutes at 37° C. VIM-2 (10 nM) was added to 20 μM nitrocefin containing AM-A in serial ½ dilutions from 16 μM. The assay was performed in 50 mM HEPES pH 7.5, 200 μL final volume. The assay was read in 96-well microplate format at 490 nm using a Spectramax reader (Molecular Devices) for 10 minutes at 37° C. as reported previously. For all assays experiments the offset between reaction initiation and the first read was ˜6s.
(§2) Rate constants characterizing the inactivation of enzyme were calculated based on the dependence of the pseudo-first order rate constant, ki, upon AM-A concentration according to the following model:
(§3) [formula] where E•Zn, A, E•Zn•A, and Zn•A are the active metalloenzyme, AM-A, the ternary metalloenzyme-AM-A complex, and AM-A-metal complex, respectively. Ki represents the dissociation constant of the ternary complex and k+2 is the rate constant for dissociation of ternary complex into inactivated enzyme (Einact) and AM-A-Zn complex. […]
(§4) [formula] […] The individual values of Ki and k+2 were determined by fitting the value of ki to equation 2 as described previously^25: […]

[3] = target: T2, VIM-2 (Escherichia coli, UniProt Q5U7L7); assay: Inactivation kinetics; assay type: biochemical
T2 construct: All β-lactamase overexpression constructs were generated without the leader peptide in a pET-28b plasmid containing a N-terminal His Tag; His tag (N); made in house; host or cells: E. coli BL21(DE3)
Experimental: as §1, §2, §3, §4

[4] = target: T2, VIM-2; assay: Incubation of AM-A with metalloenzymes in Zn2+-depleted buffer; assay type: biochemical; conditions: extended incubation, AM-A 0.5 mM
Experimental: Enzyme (500 nM) was incubated with AM-A (500 μM) for 10 minutes. 20 μL of the above was diluted with 180 μL nitrocefin or FAPGG substrate for the following final concentrations: Enzyme (50 nM), FAPGG (50 μM)/nitrocefin (20 μM), AM-A (50 μM). Buffer (50 mM HEPES pH 7.5, 300 mM NaCl) was stirred overnight with 2 g/100 mL Chelex-100 (Biorad; Richmond, Calif.). Assays were read in 96-well microplate format at 490 nm using a Spectramax reader (Molecular Devices) at 37° C.

[5] = rats, i.v.; cited from earlier work
[6] = system: K. pneumoniae N11-2218; assay: Mouse systemic infection, organ bacterial load; assay type: in vivo, CD1 mice
Description: All animals were housed in specific pathogen-free units in the Central Animal Facility at McMaster University. All experimental protocols were approved by, and performed in accordance with the McMaster Animal Research Ethics Board. Female CD1 mice were purchased from Charles River.
Mice were infected intraperitoneally (ip) with a dose of 2×10^6 colony forming units (cfu) of Klebsiella pneumoniae N11-2218 for all organ bacterial load experiments, or with a dose of 5×10^7cfu for all survival experiments. For all organ bacterial load experiments, mice were euthanized 48 hours post infection, and spleen and liver were harvested. Organs were placed into 1 mL sterile PBS on ice, and then homogenized (Mixer Mill 400; Retsch). Organ homogenates were then serially diluted in PBS, and plated on Brilliant Green agar (Oxoid) for cfu enumeration. For survival curves, mice were monitored for endpoint. For all experiments, mice were treated 30 minutes post infection with a specified subcutaneous dose of either PBS, meropenem, AM-A inhibitor, or a combination of both antibiotic and inhibitor.

[7] = system: K. pneumoniae N11-2218; assay: Microdilution checkerboard / MIC; assay type: cell-based, Klebsiella pneumoniae; conditions: checkerboard MIC, NDM-1 expressing CRE
Experimental: FIC values were determined by standard methods^27 setting up checkerboards with 8 concentrations of each meropenem and AM-A in serial ½ dilutions. Experiments were done in duplicate and the mean used for calculation. The MIC for each compound was the lowest concentration of compound showing no growth. The FIC for each compound was calculated as the concentration of the compound in the presence of co-compound for a well showing no growth, divided by the MIC for that compound. The FIC index is the sum of the two FICs.

T1 sequence (C7C422 29-270 limits assumed): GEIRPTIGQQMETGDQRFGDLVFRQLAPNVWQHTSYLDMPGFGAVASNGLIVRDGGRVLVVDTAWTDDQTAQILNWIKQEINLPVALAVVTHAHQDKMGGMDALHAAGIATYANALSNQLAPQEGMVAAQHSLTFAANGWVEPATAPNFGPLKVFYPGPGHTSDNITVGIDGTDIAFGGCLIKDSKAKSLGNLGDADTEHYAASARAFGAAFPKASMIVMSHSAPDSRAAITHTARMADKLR

With `N[C@H](CN[C@H](CN[C@@H](CC(=O)O)C(=O)O)C(=O)O)C(=O)O` [AM-A, aspergillomarasmine A] the “NDM-1 activity after addition of excess ZnSO4” value [1] was “enzymatic activity could be restored; also recorded: restores activity”, the pKi [2] was 7.96 and the “k+2 (inactivation rate constant)” value ([2]; time-dependent inactivation) was 0.0062 s⁻¹. The pKi [3] was 8.15, the “k+2 (inactivation rate constant)” value ([3]; time-dependent inactivation) was 0.0065 s⁻¹ and the “inactivation of VIM-2” value [4] was “complete inactivation”. The LD50 [5] was 250 mg/kg, the “bacterial load in tissues” value ([6]; AM-A alone) was “unaffected” and the “bacterial load in the spleen” value ([6]; combination meropenem 10 mg/kg + AM-A 10 mg/kg, single dose, 48 hours post infection) was “significantly reduced”. For the same compound, the “synergy between meropenem and AM-A” value [7] was “synergy”.
